In US10082499B2, “Short term isotope pulse labeling method for analysing metabolic products in biological samples” (Max-Delbrueck-Centrum fuer Molekulare Medizin, priority 2014, dated 2018):
Entries after “also recorded” stand apart in the source; their conditions may differ.

System: T98G cells
Assay: pSIRM analysis of glycolytic inhibition (13C-glucose pulse labeling, GC-MS)
Type: cell-based
Method: GC-MS measurement: Metabolite analysis was performed on a gas chromatography coupled to time of flight mass spectrometer (LECO-Pegasus III— TOF-MS-System, LECO), supplemented with an auto-sampler (MultiPurpose Sampler 2 XL, Gerstel). Samples and quantification standards were injected in split mode (split 1:5, injection volume: 1 ul,) in a temperature-controlled injector (CAS4, Gerstel) with a baffled glass-liner (Gerstel). The following temperature program was applied during sample injection: Initial temperature of 80° C. for 30 s followed by a ramp with 12° C./min to 120° C. and a second ramp with 7° C./min to 300° C. and final hold for 2 min. Gas chromatographic separation was performed on an Agilent 6890N (Agilent), equipped with a Varian VF-5 ms-column of 30 m length, 250 μm inner diameter and 0.25 μm film thickness (Varian). Helium was used as carrier gas with a flow rate of 1.2 mL/min. Gas chromatography was performed with the following temperature gradient: 2 min heating at 70° C., first temperature gradient with 5° C./min up to 120° C. and hold for 30 s, subsequently a second temperature increase of 7° C./min up to 350° C. with a hold time of 2 min. Spectra were recorded in a mass range of 60 to 600 u with 20 spectra/s at a detector voltage of 1750 V.
Data analysis: The vendor software ChromaTOF Version 4.42 (LECO Corp. St. Joseph—USA) was used for metabolite evaluation with the following parameter: baseline offset of 1, peak width of 4 s, signal/noise of 20, peak smoothing of 11 data-points. Retention indices were calculated based on retention index standards as described (Ref). GoIm Metabolome Database (GMD) provided peak identification. The quantification routine of ChromaTOF was used for external calibration based on the measured quantification standards. Exported csv-files included: Name, quant mass, retention index, 1st dimension retention time, 2nd dimension retention time, area, concentration, match, reverse, quant signal/noise, type, concentration units and the peak true spectrum in absolute values. For further data analysis the tool MetMax was developed in cooperation with the MPIMP in Potsdam-Golm (http://gmd.mpimp-golm.mpg.de/apps/metmax). MetMax provided of extraction of peak areas and quantities (retention analysis mode), and intensities of pre-defined mass ranges (isotope concentrator mode) from the exported csv-files. The in-house developed pSIRM-wizard enabled the determination of ^13C-label incorporation based on the exported data following the descriptions and equations stated in the paper.
Cell harvest: Growth media was removed from cells and cells were incubated in 5 ml of prewarmed (37° C.) wash-buffer (137 mM NaCl, 3 mM KCl, 5 mM HEPES, adjusted to a pH of 7.2-7.4) enriched with the same amount of glucose and glutamine as in the growth media (2.5 g/L and 4 mM respectively). For the metabolic labeling the wash-buffer is used as labeling buffer with glucose or glutamine replaced by their ^13C-counterpart. Cells were incubated for 3 minutes at 37° C. before harvest. The buffer was removed followed by an immediate addition of 5 ml of prechilled (−20 to −40° C.) 50% MeOH (with 2-4 μg/mL Cinnamic acid as internal standard) to the plate. Cells were scratched of the plates using cell-scraper and transferred to a falcon, which contain 1 ml of chloroform. Cell suspension was frozen in liquid nitrogen and stored at −80° C. until extraction. To extract cell metabolism the suspension was shaken for 30 minutes at 4° C., followed by a centrifugation for 10 minutes to perform phase separation. 4.5 ml of the upper, polar phase were transferred into a new falcon and dried under vacuum. On the next day the pellet was resuspended in 530 μl 20% Methanol (4° C.), shaken at 4° C. until completely solved, transferred into two eppies (2×250 μl) and dried under vacuum. The dried samples were stored at −20° C. and derivatized as described above. […]

[1] = 2 mM inhibitor 12 min + 3 min 13C-glucose
[2] = 2 mM inhibitor 12 min, then 3 min 13C-glucose in presence of inhibitor

SMILES | 13C-glucose incorporation (carbon flow) into citrate [1] | inhibitory effect on glycolysis [1] | isotope incorporation in pyruvate and lactate / pyruvate or lactate levels [1] | reduction of the 13C-fraction of hexose-phosphates [2] | inhibitory effect on glycolysis (10 mM inhibitor) | isotope incorporation rates in G6P (10 mM inhibitor) | reduction of glycolytic flow (10 mM inhibitor) | carbon flow downstream of GAPDH (2 mM inhibitor) | concentration of 3PGA [1] | labelled fraction of G6P and F6P [1] | total concentration of G6P and F6P (hexose phosphates) [1] | reduction of carbon-flow into pyruvate, lactate and citrate [2]
O=CC[C@@H](O)[C@H](O)[C@H](O)CO [2DG, 2-deoxyglucose] | extended; also recorded: increasing | negligible | affected only marginally; also recorded: did not affect | 20% | stronger inhibition | not affected | up to 80% |  |  |  |  | 
O=C(O)C(=O)CBr [BrPyr] |  | nearly completely inhibited |  |  |  |  |  | strong decline | diminished below the detection limit | reduced | increased | around 100%
